# Like-named read-outs stand apart in the source and are kept apart here. Starred links: 1 amine or outer side, 2 acyl side, 3 side chain; linkers in the order of their positions; H or OH if unused. Positions of bridges follow the written chain, without caps; N, C: chain ends. Non-standard residues stand in square brackets, D forms with d. Residues, ends and D or L forms follow the SMILES beside them. ξ: configuration not given here. *: point of attachment. X1 = O=C1C[C@@H](C(=O)[*:2])N([*:1])C[C@H]1CSCCNc1ccnc2cc(Cl)ccc12; NMePhe(4-NMe2) = CN[C@@H](Cc1ccc(N(C)C)cc1)C(=O)O; Picolinoyl(3-OH) = O=C(c1ncccc1O)*; ξPhg = NC(C(=O)O)c1ccccc1; dAbu = CC[C@@H](N)C(=O)O
# Tests used:
# [1] = test system: H. influenzae CIP 102514; assay: Antibacterial activity (MIC/MBC); format: cell-based, Haemophilus influenzae; details: H. influenzae CIP 102514; for MBC: read-out: MBC
# [2] = test system: S. pneumoniae PRSP CIP 104471; assay: Antibacterial activity (MIC/MBC); format: cell-based, Streptococcus pneumoniae
# [3] = test system: Staphylococcus aureus MSSA CIP 4.83; assay: Antibacterial activity (MIC/MBC); format: cell-based; details: S. aureus MSSA CIP 4.83; for MBC: read-out: MBC
# [4] = test system: E. faecalis VRE CIP 104676; assay: Antibacterial activity (MIC/MBC); format: cell-based, Enterococcus faecalis; details: E. faecalis VRE CIP 104676
# [5] = test system: S. pneumoniae PRSP clinical isolate; assay: Antibacterial activity (MIC/MBC); format: cell-based, Streptococcus pneumoniae
# [6] = Stability in solution at pH 7 (HPLC purity over time); format: physicochemical; details: pH 7, 37° C.
# Experimental: (§1) The stability of the aminoquinoline-cephalosporin_hybrid molecules given as examples was determined in solution at 37° C., at physiological pH (pH 7, phosphate buffer/acetonitrile, 75/25 v/v) and at acidic pH (pH 1, 0.1 M HCl/ethanol, 70/30 v/v) by high pressure liquid chromatography coupled to a UV-visible detector (Beckman Coulter ODS C18 column, 5 μm, 4.6×250 mm; eluents: A: 0.1% TFA, B: CH3CN/H2O 90/10 0.1% TFA, gradient: from 10% to 100% of B in 30 minutes, and then 100% of B for 10 minutes, flow rate 1 mL/minutes, λ=254 nm, volume injected: 10 μL).
# [7] = test system: S. aureus MRSA clinical isolate; assay: Antibacterial activity (MIC); format: cell-based, Staphylococcus aureus; details: Staphylococcus aureus; S. aureus MRSA clinical isolate; read-out: MIC
# [8] = test system: S. pneumoniae PSSP CQI 201; assay: Antibacterial activity (MIC); format: cell-based, Streptococcus pneumoniae; details: Streptococcus pneumoniae; S. pneumoniae PSSP CQI 201; read-out: MIC
# [9] = test system: S. pyogenes CIP 56.41T; assay: Antibacterial activity (MIC/MBC); format: cell-based, Streptococcus pyogenes; details: Streptococcus pyogenes, CIP56; S. pyogenes CIP 56.41T; read-out: MIC
# [10] = Stability in solution at pH 1 (HPLC purity over time); format: physicochemical; details: pH 1, 37° C.
# Experimental: as §1
# [11] = Staphylococcus aureus, read-out: MIC
# [12] = Haemophilus influenzae, CIP102514
# [13] = Haemophilus influenzae, CIP102514, read-out: MIC
# [14] = Streptococcus pneumoniae, read-out: MIC
# [15] = Enterococcus faecalis, read-out: MIC
# [16] = Streptococcus pneumoniae, PRSP, read-out: MIC
Compound,"MIC [3, 11] [µg/mL]","MIC [1, 13] [µg/mL]","MIC [2, 14] [µg/mL]","MIC [4, 15] [µg/mL]","MIC [5, 16] [µg/mL]",MBC ([3]; Staphylococcus aureus) [µg/mL],"MBC [1, 12] [µg/mL]",Purity of the hybrid molecules (as a percentage) as a function of time (hours) ([6]; time 0 h) [%],Purity of the hybrid molecules (as a percentage) as a function of time (hours) ([6]; time 1 h) [%],Purity of the hybrid molecules (as a percentage) as a function of time (hours) ([6]; time 2 h) [%],Purity of the hybrid molecules (as a percentage) as a function of time (hours) ([6]; time 4 h) [%],Purity of the hybrid molecules (as a percentage) as a function of time (hours) ([6]; time 6 h) [%],Purity of the hybrid molecules (as a percentage) as a function of time (hours) ([6]; time 8 h) [%],Purity of the hybrid molecules (as a percentage) as a function of time (hours) ([6]; time 15 h) [%],Purity of the hybrid molecules (as a percentage) as a function of time (hours) ([6]; time 24 h) [%],MBC ([2]; Streptococcus pneumoniae) [µg/mL],MBC ([4]; Enterococcus faecalis) [µg/mL],MBC ([5]; Streptococcus pneumoniae) [µg/mL],further results
"CC(=O)OCC1=C(C(=O)O)N2C(=O)[C@@H](N)[C@H]2SC1 [7-ACA, 7-aminocephalosporanic acid, reference compound]",,,,,,,,,,,,,,,,,,,MIC [1]: 50 µg/mL; MIC [2]: 50 µg/mL; MIC [3]: 50 µg/mL; MIC [4]: >50 µg/mL; MIC [5]: 50 µg/mL
"CC(=O)OCC1=C(C(=O)O)N2C(=O)[C@@H](NC(=O)CNc3ccnc4cc(Cl)ccc34)[C@H]2SC1.Cl [PA 1089, (6R,7R)-3-Acetoxymethyl-7-[2-(7-chloroquinolin-4-ylamino)-acetylamino]-8-oxo-5-thia-1-aza-bicyclo[4.2.0]oct-2-ene-2-carboxylic acid hydrochloride]",0.2,3.12,0.39,6.25,0.39,0.39,> 50,100,100,100,100,98,97,92,83,0.39,12.5,0.39,Purity of the hybrid molecules (as a percentage) as a function of time (hours) ([10]; time 0 h): 100%; Purity of the hybrid molecules (as a percentage) as a function of time (hours) ([10]; time 1 h): 96%; Purity of the hybrid molecules (as a percentage) as a function of time (hours) ([10]; time 2 h): 88%; Purity of the hybrid molecules (as a percentage) as a function of time (hours) ([10]; time 4 h): 81%; Purity of the hybrid molecules (as a percentage) as a function of time (hours) ([10]; time 24 h): 24%

# Continued, in another order:
"MIC [3, 11] [µg/mL]","MIC [1, 13] [µg/mL]","MIC [2, 14] [µg/mL]","MIC [4, 15] [µg/mL]","MIC [5, 16] [µg/mL]",Compound,MBC ([3]; Staphylococcus aureus) [µg/mL],"MBC [1, 12] [µg/mL]",Purity of the hybrid molecules (as a percentage) as a function of time (hours) ([6]; time 0 h) [%],Purity of the hybrid molecules (as a percentage) as a function of time (hours) ([6]; time 1 h) [%],Purity of the hybrid molecules (as a percentage) as a function of time (hours) ([6]; time 2 h) [%],Purity of the hybrid molecules (as a percentage) as a function of time (hours) ([6]; time 4 h) [%],Purity of the hybrid molecules (as a percentage) as a function of time (hours) ([6]; time 6 h) [%],Purity of the hybrid molecules (as a percentage) as a function of time (hours) ([6]; time 8 h) [%],Purity of the hybrid molecules (as a percentage) as a function of time (hours) ([6]; time 15 h) [%],Purity of the hybrid molecules (as a percentage) as a function of time (hours) ([6]; time 24 h) [%],MBC ([2]; Streptococcus pneumoniae) [µg/mL],MBC ([4]; Enterococcus faecalis) [µg/mL],MBC ([5]; Streptococcus pneumoniae) [µg/mL],further results
0.012,,,,,"CC(C)(C)C(=O)OCOC(=O)[C@@H]1N2C(=O)[C@@H](NC(=O)C3CCN(c4ccnc5cc(Cl)ccc45)CC3)[C@H]2SC1(C)C [PA 1007, (2S,5R,6R)-6-{[1-(7-Chloroquinolin-4-yl)-piperidine-4-carbonyl]-amino}-3,3-dimethyl-7-oxo-4-thia-1-aza-bicyclo[3.2.0]heptane-2-carboxylic acid 2,2-dimethyl-propionyloxymethyl ester]",0.49,,,,,,,,,,,,,
0.78,50,25,50,25,CC(=O)OCC1=C(C(=O)O)N2C(=O)[C@@H](NC(=O)C3CCN(c4ccnc5cc(Cl)ccc45)CC3)[C@H]2SC1.Cl [PA 1074],1.56,> 50,100,100,100,100,100,97,88,87,50,> 50,50,
0.31,,,,,"CC[C@H]1NC(=O)[C@@H](NC(=O)c2ncccc2O)[C@@H](C)OC(=O)C(c2ccccc2)NC(=O)[C@@H]2CC(=O)[C@H](CSCCNc3ccnc4cc(Cl)ccc34)CN2C(=O)[C@H](Cc2ccc(N(C)C)cc2)N(C)C(=O)[C@@H]2CCCN2C1=O (stereo partly drawn) [PA 1182, 5δ-{1-[2-(7-Chloroquinolin-4-ylamino)-ethylamino]-methylsulfanyl}pristinamycin IA] ({Picolinoyl(3-OH)}-T[dAbu]P[NMePhe(4-NMe2)][X1][ξPhg]; ester 1-C)",,,,,,,,,,,,,,MIC [7]: 1.25 µg/mL; MIC [8]: 0.31 µg/mL; MIC [9]: 0.32 µg/mL
> 50,50,50,> 50,50,"O=C(O)CNc1ccnc2cc(Cl)ccc12 [PA 1117, (7-Chloroquinolin-4-ylamino)acetic acid, reference compound]",,,,,,,,,,,,,,
